Source: patent US20060030556A1, “Neurokinin-1 receptor antagonists for the treatment of conditions responsive to testosterone elevation, including testosterone deficiency” (SOLVAY PHARMACEUTICALS B.V., priority 2004, published 2006)

What was measured:
[1] = Serum testosterone in chronic psychosocial stress with concomitant Compound 1 treatment (enzyme-immunoassay); type: in vivo, tree shrews (Tupaia belangen)
Description: (§1) The experiments were carried out using tree shrews (Tupaia belangen). Experimentally naive adult male tree shrews were obtained from the breeding colony at the German Primate Center (Göttingen, Germany). Animals were housed individually in air-conditioned facilities on a 12 hr/12 hr light/dark cycle with artificial illumination (lights on from 8:00 A.M. to 8:00 P.M.) and with free access to food and water (Fuchs E. “Tree shrews”, In: Poole T, (ed) UFAW handbook on the care and management of laboratory animals Oxford: Blackwell, 235-245, 1999). All treatments were performed during the day (activity period, lights on). Animal experiments were conducted in accordance with the European Communities Council Directive of Nov. 24, 1986 […] and were approved by the Government of Lower Saxony, Germany.
The experimental design was as follows: Animals were divided into three experimental groups: ‘Control’, ‘Stress’ and ‘Stress+Compound 1’, each consisting of six tree shrews. The experiment consisted of three different phases and lasted for six weeks (42 days). The first experimental phase went on for 7 days, during which all animals remained undisturbed and body weight was recorded daily. The second phase of the experiment was a 7-day period, during which the animals of the Stress' and the ‘Stress+Compound 1’ group were submitted to daily psychosocial conflict. For the induction of psychosocial conflict one naive male was introduced into the cage of a socially experienced male. After establishment of a clear dominant/subordinate relationship, the two animals were separated by a wire mesh barrier. […]
For determination of testosterone, 100 μl serum was two times extracted with 1 ml of diethylether by vortexing for 10 min. […] 50 μl aliquots of reconstituted extracts were then measured for concentrations of testosterone by enzyme-immunoassay as described by Kraus et al. (Physiol. Behav. 66: 855-861, 1999). […]
Serum testosterone levels were measured from blood samples collected before perfusing the animals. […]

[2] = test system: NK1 receptors in the tree shrew brain; assay: Nicotine-induced emesis pilot study to establish the dose that blocks NK1 receptors in tree shrew brain; type: in vivo, tree shrews (Tupaia belangen); conditions: 30 min before s.c. (-)-nicotine 4 mg/kg, episodes counted over following 30 min, n=4 crossover
Description: as §1
Animals received the NK1 receptor antagonist Compound 1 orally. A pilot study to establish the dose of Compound 1 that blocks NK1 receptors in the tree shrew brain was conducted. The methodology used is based on the ability of NK1 receptor antagonists to block nicotine-induced vomiting in musk shrews (Tattersall et al., Neuropharmacology, 34, 1697-1699, 1995). Adult tree shrews (n=4) received either vehicle or Compound 1 in different dosage orally followed 30 minutes later by subcutaneous administration of (−)-nicotine (4 mg/kg; Sigma), and the number of emetic episodes occurring during the following 30 min was recorded. Each animal received each treatment in a crossover design, with 10 days washout period between studies. Emetic episodes were abolished by treatment with 20 mg/kg per day Compound 1, whereas lower doses, i.e. 5 or 10 mg/kg per day and vehicle were ineffective.

[3] = 20 mg/kg/day oral for 28 days, p<0.05

SMILES: O=C(c1cccc(C(F)(F)F)c1)N1C[C@H]2CC[C@H](N3CCOCC3)CN2C[C@H]1Cc1c[nH]c2ccccc12 [Compound 1]
- serum testosterone concentrations compared to 'Control' animals [1, 3]: two fold increase
- testosterone levels compared to the 'Stress' group [1, 3]: six times higher
- Serum testosterone concentration ([1]; Stress + Compound 1 group, 20 mg/kg/day oral for 28 days during psychosocial stress, n = 6, p<0.05 versus Control and versus Stress): 6.45 ± 2.00 *# (n = 6) ng/ml
- emetic episodes after (-)-nicotine ([2]; 5 mg/kg per day oral): ineffective
- emetic episodes after (-)-nicotine ([2]; 10 mg/kg per day oral): ineffective
- emetic episodes after (-)-nicotine ([2]; 20 mg/kg per day oral): abolished
